Drawing on patent publication US20230279025A1, “KRAS G12D INHIBITORS” (Mirati Therapeutics, Inc., priority 2020, published 2023), this text covers Kd and IC50 for 14 molecules.

Each structure is given as a SMILES string.

Test [1] concerns the target T1, KRas G12D (Homo sapiens (Human), UniProt P01116, G12D). Description: KRas G12D Surface Plasmon Resonance (SPR) Binding Assay. The settings on record: Biacore T200, immobilized biotinylated KRAS protein, 1:1 binding model. For orientation: SPR reads the build-up and loss of mass on a sensor chip optically.
Target sequence in this assay (P01116-2 other isoform, or with tags, fused parts or gaps G12D): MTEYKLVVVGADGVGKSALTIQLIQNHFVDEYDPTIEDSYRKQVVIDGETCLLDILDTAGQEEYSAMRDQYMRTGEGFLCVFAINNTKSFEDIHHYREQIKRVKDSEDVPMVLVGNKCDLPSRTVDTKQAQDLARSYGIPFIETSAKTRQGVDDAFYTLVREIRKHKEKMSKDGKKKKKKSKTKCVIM
The target of test [2] is T1, KRas G12D. Description: KRas G12D Binding Assay (TR-FRET displacement of Cy5 labelled tracer). The settings on record: GDP-loaded KRAS G12D (amino acids 1:169), 60 minute incubation at 22° C. Here is the method: After a 60 minute incubation at 22° C., the reaction was measured using a PerkinElmer EnVision multimode plate reader via TR-FRET dual wavelength detection, and the percent of control (POC) calculated using a ratiometric emission factor. […] The POC values were fit to a 4-parameter logistic curve and the IC50 value was determined as the concentration where the curve crosses 50 POC.
ND stands for “not determined.”
Target sequence in this assay (P01116 other isoform, or with tags, fused parts or gaps G12D): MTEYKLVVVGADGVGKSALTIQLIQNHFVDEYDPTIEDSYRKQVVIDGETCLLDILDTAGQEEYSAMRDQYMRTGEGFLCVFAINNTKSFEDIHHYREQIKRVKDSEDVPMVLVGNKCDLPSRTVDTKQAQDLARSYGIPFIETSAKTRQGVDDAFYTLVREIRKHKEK
Background: TR-FRET usually uses a lanthanide donor and a delayed reading to cut background.

The Kd is the free concentration of one partner at which half of the binding sites on the other are occupied at equilibrium, for simple one-to-one binding. Low readings indicate higher affinity, high ones lower affinity. In general, IC50 refers to the concentration that gives 50% inhibition. High values mean weaker potency in that assay, low ones greater potency in that assay. `Cn1ccnc1CCOc1nc(N2C[C@H]3CC[C@@H](C2)N3)c2cnc(-c3cccc4ccccc34)c(F)c2n1` [Example 94, 4-((1R,5S)-3,8-diazabicyclo[3.2.1]octan-3-yl)-8-fluoro-2-(2-(1-methyl-1H-imidazol-2-yl)ethoxy)-7-(naphthalen-1-yl)pyrido[4,3-d]pyrimidine]: binding at KRas G12D [1] was put at a Kd of 7460 nM. This molecule also had an IC50 at KRas G12D [2] of 3650 nM.

Molecule `CC1CCCc2cccc(-c3ncc4c(N5CC6CCC(C5)N6)nc(OC[C@@H]5CCCN5C)nc4c3F)c21` (stereo partly drawn) [Example 133, 4-((I R,5S)-3,8-diazabicyclo[3.2.1]octan-3-yl)-8-fluoro-7-(8-methyl-5,6,7,8-tetrahydronaphthalen-1-yl)-2-(((S)-1-methylpyrrolidin-2-yl)methoxy)pyrido[4,3-d]pyrimidine] gave a Kd at KRas G12D [1] of 113 nM. The same molecule displayed an IC50 on KRas G12D [2] of 48.8 nM.

At KRas G12D [1], `CN(C)C1CN(c2nc(N3C[C@H]4CC[C@@H](C3)N4)c3cnc(-c4cc(O)cc5ccccc45)c(F)c3n2)C1` [Example 120, 4-(4-((1R,5S)-3,8-diazabicyclo[3.2.1]octan-3-yl)-2-(3-(dimethylamino)azetidin-1-yl)-8-fluoropyrido[4,3-d]pyrimidin-7-yl)naphthalen-2-ol bis(2,2,2-trifluoroacetate)] showed a Kd of 42.1 nM. The molecule also showed an IC50 on KRas G12D [2] of 28.8 nM.

On KRas G12D [1], `Oc1cc(-c2ncc3c(N4C[C@H]5CC[C@@H](C4)N5)nc(OCCCN4CCOCC4)nc3c2F)c2ccccc2c1` [Example 22, 4-(4-((1R,5S)-3,8-diazabicyclo[3.2.1]octan-3-yl)-8-fluoro-2-(3-morpholinopropoxy)pyrido[4,3-d]pyrimidin-7-yl)naphthalen-2-ol] had a Kd of 19.6 nM. In addition, on KRas G12D [2], the IC50 worked out at 50.3 nM.

On to `Cn1nccc1COc1nc(N2C[C@H]3CC[C@@H](C2)N3)c2cnc(-c3cc(O)cc4ccccc34)c(F)c2n1` [Example 5, 4-(4-((1R,5S)-3,8-diazabicyclo[3.2.1]octan-3-yl)-8-fluoro-2-((1-methyl-1H-pyrazol-5-yl)methoxy)pyrido[4,3-d]pyrimidin-7-yl)naphthalen-2-ol], for which binding on KRas G12D [1] was put at a Kd of 295 nM. The molecule also came in with an IC50 at KRas G12D [2] of 723 nM.

In turn, `O=C(O)CCOc1nc(N2C[C@H]3CC[C@@H](C2)N3)c2cnc(-c3cccc4cccc(Cl)c34)c(F)c2n1` [Example 61, 3-((4-((1R,5S)-3,8-diazabicyclo[3.2.1]octan-3-yl)-7-(8-chloronaphthalen-1-yl)-8-fluoropyrido[4,3-d]pyrimidin-2-yl)oxy)propanoic acid compound with 2,2,2-trifluoroacetaldehyde] showed a Kd at KRas G12D [1] of 116 nM. At KRas G12D [2], this molecule showed an IC50 of 4080 nM.

On KRas G12D [1], `OC[C@@H]1CCN1c1nc(N2C[C@H]3CC[C@@H](C2)N3)c2cnc(-c3cc(O)cc4ccccc34)c(F)c2n1` [Example 121, 4-(4-((1R,5S)-3,8-diazabicyclo[3.2.1]octan-3-yl)-8-fluoro-2-((S)-2-(hydroxymethyl)azetidin-1-yl)pyrido[4,3-d]pyrimidin-7-yl)naphthalen-2-ol 2,2,2-trifluoroacetate] gave a Kd of 197 nM. The molecule further showed a half-inhibitory concentration (IC50) at KRas G12D [2] of 204 nM.

`CCCOc1nc(N2C[C@H]3CC[C@@H](C2)N3)c2cnc(-c3cc(O)cc4ccccc34)c(F)c2n1` [Example 47, 4-(4-((1R,5S)-3,8-diazabicyclo[3.2.1]octan-3-yl)-8-fluoro-2-propoxypyrido[4,3-d]pyrimidin-7-yl)naphthalen-2-ol] returned a Kd on KRas G12D [1] of 510 nM. At KRas G12D [2], the IC50 worked out at 265 nM.

`CN1CCC[C@H]1COc1nc(N2CC3CCC(C)(C2)N3)c2cnc(-c3cc(O)cc4ccccc34)c(F)c2n1` (stereo partly drawn) [Example 156, 4-(8-fluoro-4-(1-methyl-3,8-diazabicyclo[3.2.1]octan-3-yl)-2-(((S)-1-methylpyrrolidin-2-yl)methoxy)pyrido[4,3-d]pyrimidin-7-yl)naphthalen-2-ol bis(2,2,2-trifluoroacetate)] registered a Kd on KRas G12D [1] of 500000 nM. Also, on KRas G12D [2], the IC50 was determined as 9.1 nM.

As to `Cc1ccc2[nH]ncc2c1-c1ncc2c(N3C[C@H]4CC[C@@H](C3)N4)nc(OCCc3nccn3C)nc2c1F` [Example 88, 4-((1R,5S)-3,8-diazabicyclo[3.2.1]octan-3-yl)-8-fluoro-2-(2-(1-methyl-1H-imidazol-2-yl)ethoxy)-7-(5-methyl-1H-indazol-4-yl)pyrido[4,3-d]pyrimidine], the Kd on KRas G12D [1] was determined as 15600 nM. The IC50 on KRas G12D [2] was 7020 nM.

`OC[C@@H]1CCCN1c1nc(N2C[C@H]3CC[C@@H](C2)N3)c2cnc(-c3cc(O)cc4ccccc34)c(F)c2n1` [Example 77, 4-(4-((1R,5S)-3,8-diazabicyclo[3.2.1]octan-3-yl)-8-fluoro-2-((S)-2-(hydroxymethyl)pyrrolidin-1-yl)pyrido[4,3-d]pyrimidin-7-yl)naphthalen-2-ol]: the Kd on KRas G12D [1] amounted to 3070 nM. Besides, the IC50 at KRas G12D [2] stood at 3140 nM.

With `CN(C)C1(C)CN(c2nc(N3C[C@H]4CC[C@@H](C3)N4)c3cnc(-c4cccc5cccc(Cl)c45)c(F)c3n2)C1` [Example 127, 1-(4-((1R,5S)-3,8-diazabicyclo[3.2.1]octan-3-yl)-7-(8-chloronaphthalen-1-yl)-8-fluoropyrido[4,3-d]pyrimidin-2-yl)-N,N,3-trimethylazetidin-3-amine], the Kd on KRas G12D [1] was determined as 864 nM. In addition, the IC50 at KRas G12D [2] was determined as 251 nM.

On KRas G12D [1], `COCCN1CCC(Oc2nc(N3C[C@H]4CC[C@@H](C3)N4)c3cnc(-c4cccc5ccccc45)c(F)c3n2)CC1` [Example 39, 4-((1R,5S)-3,8-diazabicyclo[3.2.1]octan-3-yl)-8-fluoro-2-((1-(2-methoxyethyl)piperidin-4-yl)oxy)-7-(naphthalen-1-yl)pyrido[4,3-d]pyrimidine] returned a Kd of 67800 nM. Also, the IC50 at KRas G12D [2] is more than 10000 nM.

Regarding `Oc1cc(-c2ncc3c(N4C[C@H]5CC[C@@H](C4)N5)nc(N4CCC4)nc3c2F)c2ccccc2c1` [Example 119, 4-(2-(azetidin-1-yl)-4-((1R,5S)-3,8-diazabicyclo[3.2.1]octan-3-yl)-8-fluoropyrido[4,3-d]pyrimidin-7-yl)naphthalen-2-ol 2,2,2-trifluoroacetate], the Kd on KRas G12D [1] came out at 511 nM. Besides, the IC50 on KRas G12D [2] turned out to be 684 nM.
